Converted amounts (≈) assume the structure as drawn. Counter-ions that a name gives are not always drawn.
Columns and labels:
Assay type in all cases: cell-based
[1] = system: Bacillus subtilis ATCC 6633; assay: Determination of minimal inhibitory concentration of growth (MIC)-1, agar plate dilution method; details: Bacillus subtilis ATCC 6633; agar plate dilution, 10⁶ CFU/ml, 37°C, 18 hours
Method: (§1) Method: MIC was determined by the agar plate dilution method in accordance with the standard protocol of Japan Society of Chemotherapy (cf. Chemotherapy 29 (1), 76-79, 1981). Each bacterial culture obtained by 18-hour incubation in a sensitivity assay bouillon medium at 37°C was diluted to 10⁶ CFU/ml with the same medium. Using a microplanter, a sensitivity assay agar medium containing the test drug was inoculated with the diluted culture and incubated at 37°C for 18 hours. The MIC value was then determined. As reference drugs, 6-fluoro-1-methyl-4-oxo-7-(1-piperazinyl)-4H-[1,3]thiazeto[3,2-a]quinoline-3-carboxylic acid (referred to as control), ciprofloxacin (CPFX) and ofloxacin (OFLX) were used.

[2] = system: Enterococcus faecalis ATCC 29212; assay: as above; details: Enterococcus faecalis ATCC 29212; agar plate dilution, 10⁶ CFU/ml, 37°C, 18 hours
Method: as §1

Escherichia coli KC-14 = assay: as above; details: 10⁶ CFU/ml, 37°C, 18 hours
Method: as §1

[3] = system: Micrococcus luteus ATCC 9341; assay: as above; details: Micrococcus luteus ATCC 9341; agar plate dilution, 10⁶ CFU/ml, 37°C, 18 hours
Method: as §1

Proteus vulgaris HX-19 = assay: as above; details: Proteus vulgaris HX-19; agar plate dilution, 10⁶ CFU/ml, 37°C, 18 hours
Method: as §1

[4] = system: Pseudomonas aeruginosa IFO 3445; assay: as above; details: Pseudomonas aeruginosa IFO 3445; agar plate dilution, 10⁶ CFU/ml, 37°C, 18 hours
Method: as §1

[5] = system: Staphylococcus aureus 209-P JC-1; assay: as above; details: Staphylococcus aureus 209-P JC-1; agar plate dilution, 10⁶ CFU/ml, 37°C, 18 hours
Method: as §1

[6] = system: Staphylococcus aureus OWPH 1984 (MRSA); assay: as above; details: Staphylococcus aureus OWPH 1984 (MRSA); agar plate dilution, 10⁶ CFU/ml, 37°C, 18 hours
Method: as §1

[7] = system: Staphylococcus aureus OWPH 2125 (MRSA, PCA^r ); assay: as above; details: Staphylococcus aureus OWPH 2125 (MRSA, PCA^r); agar plate dilution, 10⁶ CFU/ml, 37°C, 18 hours
Method: as §1

[8] = system: Staphylococcus aureus Smith; assay: as above; details: Staphylococcus aureus Smith; agar plate dilution, 10⁶ CFU/ml, 37°C, 18 hours
Method: as §1

[9] = system: Staphylococcus epider-midis IFO 12993; assay: as above; details: Staphylococcus epider-midis IFO 12993; agar plate dilution, 10⁶ CFU/ml, 37°C, 18 hours
Method: as §1

S. aureus OWPH 1770 = assay: Determination of minimal inhibitory concentration (MIC)-2, new quinolone-resistant MRSA; details: Staphylococcus aureus, OWPH1770, 18 h; S. aureus OWPH 1770, new quinolone-resistant and methicillin-resistant; same procedure as Test Example 1
Method: as §1
(§2) The antibacterial activity of the compounds obtained in Example 4, Example 25 and Example 26 of the present invention was assayed by the same procedure as in Test Example 1. As reference drugs, 6-fluoro-1-methyl-4-oxo-7-(1-piperazinyl)-4H-[1,3]-thiazeto[3,2-a]quinoline-3-carboxylic acid (referred to as Control), norfloxacin (NFLX) and tosufloxacin (TFLX) were used.

S. aureus OWPH 1773 = assay: as above; details: Staphylococcus aureus, OWPH1773, 18 h; S. aureus OWPH 1773, new quinolone-resistant and methicillin-resistant; same procedure as Test Example 1
Method: as §1, §2

S. aureus OWPH 1786 = assay: as above; details: Staphylococcus aureus, OWPH1786, 18 h; S. aureus OWPH 1786, new quinolone-resistant and methicillin-resistant; same procedure as Test Example 1
Method: as §1, §2

S. aureus OWPH 1792 = assay: as above; details: Staphylococcus aureus, OWPH1792, 18 h; S. aureus OWPH 1792, new quinolone-resistant and methicillin-resistant; same procedure as Test Example 1
Method: as §1, §2

S. aureus OWPH 1793 = assay: as above; details: Staphylococcus aureus, OWPH1793, 18 h; S. aureus OWPH 1793, new quinolone-resistant and methicillin-resistant; same procedure as Test Example 1
Method: as §1, §2

S. aureus OWPH 1796 = assay: as above; details: Staphylococcus aureus, OWPH1796, 18 h; S. aureus OWPH 1796, new quinolone-resistant and methicillin-resistant; same procedure as Test Example 1
Method: as §1, §2

S. aureus OWPH 1799 = assay: as above; details: Staphylococcus aureus, OWPH1799, 18 h; S. aureus OWPH 1799, new quinolone-resistant and methicillin-resistant; same procedure as Test Example 1
Method: as §1, §2

S. aureus OWPH 2124 = assay: as above; details: Staphylococcus aureus, OWPH2124, 18 h; S. aureus OWPH 2124, new quinolone-resistant and methicillin-resistant; same procedure as Test Example 1
Method: as §1, §2

S. aureus OWPH 2127 = assay: as above; details: Staphylococcus aureus, OWPH2127, 18 h; S. aureus OWPH 2127, new quinolone-resistant and methicillin-resistant; same procedure as Test Example 1
Method: as §1, §2

S. aureus OWPH 2128 = assay: as above; details: Staphylococcus aureus, OWPH2128, 18 h; S. aureus OWPH 2128, new quinolone-resistant and methicillin-resistant; same procedure as Test Example 1
Method: as §1, §2

S. aureus OWPH 2133 = assay: as above; details: Staphylococcus aureus, OWPH2133, 18 h; S. aureus OWPH 2133, new quinolone-resistant and methicillin-resistant; same procedure as Test Example 1
Method: as §1, §2

S. aureus OWPH 2134 = assay: as above; details: Staphylococcus aureus, OWPH2134, 18 h; S. aureus OWPH 2134, new quinolone-resistant and methicillin-resistant; same procedure as Test Example 1
Method: as §1, §2

S. aureus Sh 2 = assay: as above; details: Staphylococcus aureus, SH2, 18 h; S. aureus Sh 2, new quinolone-resistant and methicillin-resistant; same procedure as Test Example 1
Method: as §1, §2

S. aureus Sh 44 = assay: as above; details: Staphylococcus aureus, SH44, 18 h; S. aureus Sh 44, new quinolone-resistant and methicillin-resistant; same procedure as Test Example 1
Method: as §1, §2

S. aureus Sh 47 = assay: as above; details: Staphylococcus aureus, SH47, 18 h; S. aureus Sh 47, new quinolone-resistant and methicillin-resistant; same procedure as Test Example 1
Method: as §1, §2

S. aureus Sh 54 = assay: as above; details: Staphylococcus aureus, SH54, 18 h; S. aureus Sh 54, new quinolone-resistant and methicillin-resistant; same procedure as Test Example 1
Method: as §1, §2

S. aureus Sh 8 = assay: as above; details: Staphylococcus aureus, SH8, 18 h; S. aureus Sh 8, new quinolone-resistant and methicillin-resistant; same procedure as Test Example 1
Method: as §1, §2

CC1Sc2c(C(=O)O)c(=O)c3cc(F)c(-c4ccc(N)cc4)cc3n21 (stereo not drawn) [Example 56, 7-(4-Aminophenyl)-6-fluoro-1-methyl-4-oxo-4H-[1,3]thiazeto[3,2-a]quinoline-3-carboxylic acid 1/2 sulfate]
MIC [1]: ≤ 0.006 μ g/ml
MIC [2]: 0.05 μ g/ml
MIC (Escherichia coli KC-14): 0.05 μ g/ml
MIC [3]: 0.20 μ g/ml
MIC (Proteus vulgaris HX-19): ≤ 0.006 μ g/ml
MIC [4]: 0.20 μ g/ml
MIC [5]: 0.025 μ g/ml
MIC [6]: 0.012 μ g/ml
MIC [7]: 0.05 μ g/ml
MIC [8]: ≤ 0.006 μ g/ml
MIC [9]: 0.012 μ g/ml

CCn1cc(C(=O)O)c(=O)c2cc(F)c(N3CCNCC3)cc21 [NFLX, norfloxacin, reference compound]
MIC (S. aureus OWPH 1770): > 100 µg/mL
MIC (S. aureus OWPH 1773): > 100 µg/mL
MIC (S. aureus OWPH 1786): > 100 µg/mL
MIC (S. aureus OWPH 1792): > 100 µg/mL
MIC (S. aureus OWPH 1793): > 100 µg/mL
MIC (S. aureus OWPH 1796): > 100 µg/mL
MIC (S. aureus OWPH 1799): > 100 µg/mL
MIC (S. aureus OWPH 2124): > 100 µg/mL
MIC (S. aureus OWPH 2127): > 100 µg/mL
MIC (S. aureus OWPH 2128): > 100 µg/mL
MIC (S. aureus OWPH 2133): > 100 µg/mL
MIC (S. aureus OWPH 2134): > 100 µg/mL
MIC (S. aureus Sh 2): > 100 µg/mL
MIC (S. aureus Sh 44): > 100 µg/mL
MIC (S. aureus Sh 47): > 100 µg/mL
MIC (S. aureus Sh 54): > 100 µg/mL
MIC (S. aureus Sh 8): > 100 µg/mL

NC1CCN(c2nc3c(cc2F)c(=O)c(C(=O)O)cn3-c2ccc(F)cc2F)C1 (stereo not drawn) [TFLX, tosufloxacin, reference compound]
MIC (S. aureus OWPH 1770): > 100 µg/mL
MIC (S. aureus OWPH 1773): > 100 µg/mL
MIC (S. aureus OWPH 1786): > 100 µg/mL
MIC (S. aureus OWPH 1792): > 100 µg/mL
MIC (S. aureus OWPH 1793): > 100 µg/mL
MIC (S. aureus OWPH 1796): > 100 µg/mL
MIC (S. aureus OWPH 1799): > 100 µg/mL
MIC (S. aureus OWPH 2124): 12.5 µg/mL (≈ 30.9 µM)
MIC (S. aureus OWPH 2127): > 100 µg/mL
MIC (S. aureus OWPH 2128): > 100 µg/mL
MIC (S. aureus OWPH 2133): > 100 µg/mL
MIC (S. aureus OWPH 2134): > 100 µg/mL
MIC (S. aureus Sh 2): > 100 µg/mL
MIC (S. aureus Sh 44): > 100 µg/mL
MIC (S. aureus Sh 47): > 100 µg/mL
MIC (S. aureus Sh 54): > 100 µg/mL
MIC (S. aureus Sh 8): > 100 µg/mL
